Results published in PubChem BioAssay (NCI).
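In this assay, cells in 96-well plates receive the compound at five concentrations for 48 hours. Endpoints are linearly interpolated between the surrounding concentrations. At the GI50, growth is halved. TGI: concentration producing complete growth inhibition.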

Assays:
Assay in all cases: inhibition of tumour cell growth, NCI panel, 48 h
[1] = test system: 786-0 renal
[2] = test system: A498 renal
[3] = test system: A549 NSCLC
[4] = test system: ACHN renal
[5] = test system: BT-549 breast
[6] = test system: CAKI-1 renal
[7] = test system: CCRF-CEM leukemia
[8] = test system: COLO 205 colon
[9] = test system: DU-145 prostate
[10] = test system: EKVX NSCLC
[11] = test system: HCC-2998 colon
[12] = test system: HCT-116 colon
[13] = test system: HCT-15 colon
[14] = test system: HL-60(TB) leukemia
[15] = test system: HOP-62 NSCLC
[16] = test system: HOP-92 NSCLC
[17] = test system: HS 578T breast
[18] = test system: HT29 colon
[19] = test system: IGROV1 ovarian
[20] = test system: K-562 leukemia
[21] = test system: KM12 colon
[22] = test system: LOX IMVI melanoma
[23] = test system: M14 melanoma
[24] = test system: MALME-3M melanoma
[25] = test system: MCF7 breast
[26] = test system: MDA-MB-231 breast
[27] = test system: MDA-MB-435
[28] = test system: MOLT-4 leukemia
[29] = test system: NCI-H226 lung
[30] = test system: NCI-H23 lung
[31] = test system: NCI-H460 lung
[32] = test system: NCI-H522 lung
[33] = test system: NCI/ADR-RES ovarian
[34] = test system: OVCAR-4 ovarian
[35] = test system: OVCAR-5 ovarian
[36] = test system: OVCAR-8 ovarian
[37] = test system: PC-3 prostate
[38] = test system: RPMI-8226 leukemia
[39] = test system: RXF 393 renal
[40] = test system: SF-268 CNS
[41] = test system: SF-295 CNS
[42] = test system: SF-539 CNS
[43] = test system: SK-MEL-2 melanoma
[44] = test system: SK-MEL-28 melanoma
[45] = test system: SK-MEL-5 melanoma
[46] = test system: SK-OV-3 ovarian
[47] = test system: SN12C renal
[48] = test system: SNB-19 CNS
[49] = test system: SNB-75 CNS
[50] = test system: SR leukemia
[51] = test system: SW-620 colon
[52] = test system: T-47D breast
[53] = test system: TK-10 renal
[54] = test system: U251 CNS
[55] = test system: UACC-257 melanoma
[56] = test system: UACC-62 melanoma
[57] = test system: UO-31 renal

CC[C@]12C=CCN3CC[C@]4(C(=C(C(=O)OC)C1)Nc1cc5c(cc14)[C@@H]1[C@H](O5)[C@@H](O)[C@@]4(CC)CC(C(=O)OC)=C5Nc6cc(O)ccc6[C@@]56CCN1C46)C32 (stereo partly specified)
GI50 [1]: 68.5 nM | TGI [1]: 4040 nM | GI50 [2]: 81.8 nM | TGI [2]: 407 nM | GI50 [3]: 259 nM | TGI [3]: 9990 nM | GI50 [4]: 153 nM | TGI [4]: 1100 nM | GI50 [5]: 168 nM | TGI [5]: 1300 nM | GI50 [6]: 39.8 nM | TGI [6]: 1590 nM | GI50 [7]: 94 nM | TGI [7]: > 50000 nM | GI50 [8]: 119 nM | TGI [8]: 619 nM | GI50 [9]: 707 nM | TGI [9]: > 26400 nM | GI50 [10]: 239 nM | TGI [10]: > 24500 nM | GI50 [11]: 75.2 nM | TGI [11]: 335 nM | GI50 [12]: 72.7 nM | TGI [12]: 597 nM | GI50 [13]: 92.7 nM | TGI [13]: 358 nM | GI50 [14]: 19.8 nM | TGI [14]: 2110 nM | GI50 [15]: 136 nM | TGI [15]: > 15300 nM | GI50 [16]: 15.7 nM | TGI [16]: 1050 nM | GI50 [17]: 172 nM | TGI [17]: > 50000 nM | GI50 [18]: 153 nM | TGI [18]: 1830 nM | GI50 [19]: 112 nM | GI50 [20]: 47.5 nM | TGI [20]: > 50000 nM | GI50 [21]: 256 nM | TGI [21]: 6990 nM | GI50 [22]: 59.7 nM | TGI [22]: 135 nM | GI50 [23]: 109 nM | TGI [23]: 9550 nM | GI50 [24]: 128 nM | TGI [24]: 9230 nM | GI50 [25]: 27 nM | TGI [25]: > 50000 nM | GI50 [26]: 94.3 nM | TGI [26]: 40200 nM | GI50 [27]: 106 nM | TGI [27]: 1520 nM | GI50 [28]: 134 nM | TGI [28]: > 50000 nM | GI50 [29]: 179 nM | GI50 [30]: 165 nM | TGI [30]: 1650 nM | GI50 [31]: 332 nM | TGI [31]: 8080 nM | GI50 [32]: 61.4 nM | TGI [32]: 324 nM | GI50 [33]: 293 nM | TGI [33]: > 50000 nM | GI50 [34]: 213 nM | TGI [34]: > 50000 nM | GI50 [35]: 262 nM | TGI [35]: > 22400 nM | GI50 [36]: 166 nM | TGI [36]: > 16000 nM | GI50 [37]: 128 nM | TGI [37]: 8000 nM | GI50 [38]: 79.8 nM | TGI [38]: 990 nM | GI50 [39]: 162 nM | TGI [39]: 977 nM | GI50 [40]: 352 nM | TGI [40]: > 20700 nM | GI50 [41]: 187 nM | TGI [41]: 9340 nM | GI50 [42]: 181 nM | TGI [42]: 8140 nM | GI50 [43]: 164 nM | TGI [43]: 1580 nM | GI50 [44]: 410 nM | TGI [44]: 18400 nM | GI50 [45]: 217 nM | TGI [45]: > 15300 nM | GI50 [46]: 172 nM | TGI [46]: 1060 nM | GI50 [47]: 185 nM | TGI [47]: > 9990 nM | GI50 [48]: 210 nM | TGI [48]: > 25600 nM | GI50 [49]: 369 nM | TGI [49]: > 50000 nM | GI50 [50]: 40.1 nM | TGI [50]: 4280 nM | GI50 [51]: 167 nM | TGI [51]: 2270 nM | GI50 [52]: 103 nM | GI50 [53]: 64.2 nM | TGI [53]: 645 nM | GI50 [54]: 195 nM | TGI [54]: 2580 nM | GI50 [55]: 122 nM | TGI [55]: > 21500 nM | GI50 [56]: 85.9 nM | TGI [56]: 40300 nM | GI50 [57]: 93.3 nM | TGI [57]: 3070 nM
